Data set [1] concerns HT22 hippocampal neuron cells. The data set is described as follows: CCK-8 cytotoxicity in HT22 cells. To be noted: CCK8 assay.
Data set [2] concerns BV2 microglia cells (OGD/R). The data set is described as follows: BV2 cell viability after OGD/R (CCK8). As to conditions: VK 0.0735, 0.735, 7.35 µM.
The subject of another data set is BV2 cells (OGD/R). The data set is described as follows: qRT-PCR of proinflammatory mediators. It counts as cell-based, mouse. To be noted: RT-PCR.
The test system of data set [3] is platelet aggregation in platelet rich plasma. The data set is described as follows: Platelet aggregation function test. It counts as cell-based. As to conditions: VK 0.0091–0.294 µM; rabbit PRP, ADP 6.07 µmol/L, 5 min maximum aggregation rate. As to the method: Platelet aggregation function test. Venous blood from (normal healthy rabbits) was collected in 3 mL sodium citrate anticoagulation vacuum plastic tubes. The collected venous blood was centrifuged for 10 min at 100 × g at 4℃ to obtain the upper plasma, and the platelet rich plasma (PRP) was prepared, centrifuged again for 10 min at 2000 × g at 4°C to draw the upper plasma, the platelet poor plasma (PPP) was prepared and […] to a platelet concentration of 3×10^8 cells/ml was counted. The adjusted PRP was placed into a four-channel platelet aggregation instrument (Agg RAM, Helena Laboratories, USA) to determine the 5 min maximum platelet aggregation rate with adenosine diphosphate (ADP), arachidonic acid (AA), thrombin, collagen (COL) , and platelet-activating factor (PAF) or saline as inducers (at a final […]
Acute toxicity test. Systemic acute toxicity test by peritoneal injection was performed according to the guideline provided by Center for Drug Evaluation and Research. In addition to the normal group, male mice were randomly divided into the treated groups received a single dose of 1.5 mg/kg, 6 mg/kg, 24 mg/kg, 96 mg/kg and 384 body weight of VK. […]
The obtained plasma was analyzed using an automatic coagulation apparatus (CA1500).

In the next data set the test system is BV2 microglia cells. Kind of data set: CCK-8 cytotoxicity in BV2 cells. As to conditions: CCK8 assay.
Data set [4] can be described thus: VK stability in plasma (HPLC). Format: in vitro ADME. To be noted: plasma (species not given), pH 7.4, 37 °C, 750 rpm, at 120 min; VK 0.735 mM (Fig. 1 legend 73.5 nM); HPLC-UV 215 nm, peak area relative to 0 min; at least triplicate. Here is the method:
Proteolytic degradation of peptide-based drugs is generally considered as the main defect to limit systemic therapeutic applications. Therefore, high-performance liquid chromatography (HPLC) was used to assess the stability of VK in PBS or plasma at physiological pH (7.4) and temperature (37 °C). […] For neuropharmacology, crossing the BBB is a remarkable challenge, and VK was labeled with FITC in the N-terminus. FITC-labeled VK was then administered to stroke mice. After 30 min, these mice were imaged by an in vivo imaging system. […] Brains were collected at 0, 30, 60, 90, and 120 min and the distribution of VK was observed. […] To further evaluate whether VK was a cell-penetrating peptide, the oxygen-glucose deprivation/reoxygenation (OGD/R) model simulated I/R […] was established in HT22 hippocampal neuron cells and FITC-labeled VK was incubated for 120 min.
VK in PBS or plasma was detected by quantifying the peak areas relative to the initial peak areas (0 min). All stability tests were performed at least in triplicate.

The subject of data set [5] is MCAO/R mice. Kind of data set: Rotarod test. Format: in vivo, mouse. To be noted: VK 150 and 300 µg/kg i.p. As to the method:
The mice were placed in a RotaRod Treadmill (Harvard Apparatus, LE8205) for adaptive training 3 days before MACO/R. The rotating rod was started and the speed was set to accelerate to 40 rpm within 5 min. The mice drop time was recorded as an indicator. The test was performed at 24 and 48 h after MCAO/R.

The test system of data set [6] is neurons in cortex and hippocampus of MCAO/R mice. Kind of data set: Nissl staining. Format: in vivo, mouse. As to the method:
Mice were anesthetized at 48 h after MCAO/R. Brain samples (bregma −2.06–1.94 mm) were collected and fixed by 4% paraformaldehyde for 12–18 h. Following sequential dehydration by 10%, 20%, and 30% sucrose, brains were put in frozen section embedding medium (SAKURA Tissue-Tek O.C.T. Compound, Japan) and cut into […] sections at the level of the frontal cortex (bregma: 1.0 to −1.94 mm) using a cryostat microtome (Leica CM1950). The sections were subsequently stained with Nissl staining.

The test system of data set [7] is microglia in brain of MCAO/R mice. The data set is described as follows: IBA1 staining of microglia (IHC, immunofluorescence). Format: in vivo, mouse.
The test system of data set [8] is MCAO/R mice. As to conditions: mouse, in vivo.

As to “Gly-Arg-Pro-Hyp-Gly-Phe-Ser-Pro-Phe-Arg-Ile-Asp [VK, Vespakinin-M]”, in data set [1], the “concentrations at which VK inhibited growth of HT22 cells” value lay within 73.5 to 735 µM. In addition, the “OGD/R-reduced viability of BV2 cells” value in [2] is “reversed by VK treatment in a dose-dependent manner”. Besides, the “OGD/R-increased expression of proinflammatory cytokines in BV2 cells” value with BV2 cells (OGD/R) is on record as “remarkably blocked these effects”. For the same substance, the “ADP-induced platelet aggregation vs control group” value in data set [3] is listed as “decreased”. Moreover, the “concentrations at which VK inhibited growth of BV2 cells” value in the data set on BV2 microglia cells was in the range of 73.5 to 735 µM. Also, the “degradation of VK in plasma” value in [4] is “completely degraded”. Also, the “sensorimotor function, rotarod test” value with MCAO/R mice [5] is “improved functional performance and ameliorated the sensorimotor asymmetry”. Also, the “neuron morphology, Nissl staining” value in data set [6] is “morphologically intact neurons were broadly seen”. In addition, the “I/R-induced elevation of IBA1 expression in cerebral cortex” value in data set [7] was “greatly blunted”. Besides, the “neurological deficits and infarct size vs vehicle (antagonist study)” value with MCAO/R mice [8] was “attenuated neurological deficits and infarct size”. Besides, the “infarct volume, TTC staining” value with MCAO/R mice [8] (ip) is “decreased infarct volume”.

The record behind these values is publication PMC8776894 (Communications Biology, 2022).
